Data: patent US12629374B2, “Antimalarial agents” (Merck Sharp & Dohme LLC, priority 2020, dated 2026)
Like-named read-outs stand apart in the source and are kept apart here.

Tested on: ring stage parasites
Assay: Parasite growth potency assay, 72 hours, LDH readout
Assay type: cell-based
How it was run: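 Parasite growth was quantified by LDH assay after a −80 °C freeze-thaw. Before that, compound was incubated for 72 h at 37 °C under humidified gas with ring-stage cultures adjusted to 0.7% parasitemia and 2% haematocrit in serum- and albumax-supplemented RPMI-Hepes.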

[1] = 72 h, parasite growth measured by LDH assay after 72 hours at 37° C., 0.7% rings, 2% haematocrit, read-out: EC50
[2] = parasite growth measured by LDH assay after 72 hours at 37° C., 0.7% rings, 2% haematocrit, trifluoroacetate, read-out: EC50
[3] = parasite growth measured by LDH assay after 72 hours at 37° C., 0.7% rings, 2% haematocrit, read-out: EC50

Row | Compound | EC50 [1] | also measured
1 | CCC1(CC)CC(=O)N(Cc2cc(C#N)cc(C(=O)N[C@H]3CCOc4ccccc43)c2)C(=N)N1 [Example 84, [1-[[3-[[(4S)-chroman-4-yl]carbamoyl]-5-cyano-phenyl]methyl]-4,4-diethyl-6-oxo-hexahydropyrimidin-2-ylidene]ammonium; 2,2,2-trifluoroacetate] | 8.3 nM | –
2 | CCC[C@@H](c1cc(C(=O)N[C@H]2CCOc3ccccc32)ccn1)N1C(=N)NC(CC)(CC)CC1=O [Example 49B, [1-[1-[4-[[(4S)-chroman-4-yl]carbamoyl]pyridin-1-ium-2-yl]butyl]-4,4-diethyl-6-oxo-hexahydropyrimidin-2-ylidene]ammonium; 2,2,2-trifluoroacetate] | 85 nM | –
3 | CCC1(CC)CC(=O)N([C@H](c2cncc(F)c2)c2cccc(C(=O)N[C@H]3CC(C)(C)Oc4ccccc43)c2)C(=N)N1 [Example 99A, [1-[[3-[[(4S)-2,2-dimethylchroman-4-yl]carbamoyl]phenyl]-(5-fluoropyridin-1-ium-3-yl)methyl]-4,4-diethyl-6-oxo-hexahydropyrimidin-2-ylidene]ammonium; 2,2,2-trifluoroacetate] | 0.6 nM | –
4 | CCC1(CC)CC(=O)N(Cc2cccc(C(=O)N[C@@H]3c4ccccc4OC3(C)CO)c2)C(=N)N1 (stereo in doubt) [Example 187A, [4,4-diethyl-1-[[3-[[2-(hydroxymethyl)-2-methyl-3H-benzofuran-3-yl]carbamoyl]phenyl]methyl]-6-oxo-hexahydropyrimidin-2-ylidene]ammonium; 2,2,2-trifluoroacetate] | – | EC50 [2]: 54.2 nM
5 | CCC1(CC)CC(=O)N(Cc2cccc(C(=O)N[C@@H]3c4ccccc4CC3(C)O)c2)C(=N)N1 (stereo in doubt) [Example 121, 3-[(4,4-diethyl-2-imino-6-oxo-hexahydropyrimidin-1-yl)methyl]-N-(2-hydroxy-2-methyl-indan-1-yl)benzamide] | 8.6 nM | –
6 | COCC[C@H](c1cccc(C(=O)N[C@@H]2c3ccccc3OC(C)(C)[C@@]2(C)O)c1)N1C(=N)NC(C)(C)CC1=O [Example 231, N-[(3S,4R)-3-hydroxy-2,2,3-trimethyl-chroman-4-yl]-3-[(1R)-1-(2-imino-4,4-dimethyl-6-oxo-hexahydropyrimidin-1-yl)-3-methoxy-propyl]benzamide] | 2.9 nM | –
7 | CCC1(CC)CC(=O)N(Cc2cc(F)cc(C(=O)N[C@@H]3c4ccccc4OC(C)(C)[C@H]3O)c2)C(=N)N1 [Example 141, [4,4-diethyl-1-[[3-fluoro-5-[[(3S,4R)-3-hydroxy-2,2-dimethyl-chroman-4-yl]carbamoyl]phenyl]methyl]-6-oxo-hexahydropyrimidin-2-ylidene]ammonium; 2,2,2-trifluoroacetate] | 0.8 nM | –
8 | CCC1(CC)CC(=O)N(C(CCOC)c2ccc(C(F)(F)F)c(C(=O)N[C@@H]3c4ccccc4C[C@@]3(C)O)c2)C(=N)N1 (stereo partly drawn) [Example 241, 5-[1-(4,4-diethyl-2-imino-6-oxo-hexahydropyrimidin-1-yl)-3-methoxy-propyl]-N-[(1R,2R)-2-hydroxy-2-methyl-indan-1-yl]-2-(trifluoromethyl)benzamide] | 9.84 nM | –
9 | CCC1(CC)CC(=O)N([C@H](COCCOC)c2cccc(C(=O)NC3c4ccccc4CC3(C)O)c2)C(=N)N1 (stereo partly drawn) [Example 146B, 3-[(1S)-1-(4,4-diethyl-2-imino-6-oxo-hexahydropyrimidin-1-yl)-2-(2-methoxyethoxy)ethyl]-N-(2-hydroxy-2-methyl-indan-1-yl)benzamide] | – | EC50 [3]: 6.4 nM
10 | CCC1(CC)CC(=O)N(Cc2cccc(C(=O)N[C@H]3CCOc4ccc(Br)cc43)c2)C(=N)N1 (stereo in doubt) [Example 219, [1-[[3-[(6-bromochroman-4-yl)carbamoyl]phenyl]methyl]-4,4-diethyl-6-oxo-hexahydropyrimidin-2-ylidene]ammonium; 2,2,2-trifluoroacetate] | 6.6 nM | –
11 | CCC1(CC)CC(=O)N([C@@H](c2cccc(OS(=O)(=O)F)c2)c2cccc(C(=O)N[C@H]3CCOc4ccccc43)c2)C(=N)N1 [Example 149B, [1-[[3-[[(4S)-chroman-4-yl]carbamoyl]phenyl]-(3-fluorosulfonyloxyphenyl)methyl]-4,4-diethyl-6-oxo-hexahydropyrimidin-2-ylidene]ammonium; 2,2,2-trifluoroacetate] | – | EC50 (72 h): 57.6 nM
12 | CC(C)[C@]1(C)CC(=O)N([C@H](C)c2cccc(C(=O)N[C@H]3CCOc4ccccc43)c2)C(=N)N1 [Example 25, [(4S)-1-[1-[3-[[(4S)-chroman-4-yl]carbamoyl]phenyl]ethyl]-4-isopropyl-4-methyl-6-oxo-hexahydropyrimidin-2-ylidene]ammonium; 2,2,2-trifluoroacetate] | 4.4 nM | –
13 | CCC1(CC)CC(=O)N(Cc2cccc(C(=O)N[C@H]3C[C@H](C(F)(F)F)Oc4ccccc43)c2)C(=N)N1 (stereo in doubt) [Example 97, [4,4-diethyl-6-oxo-1-[[3-[[2-(trifluoromethyl)chroman-4-yl]carbamoyl]phenyl]methyl]hexa-hydropyrimidin-2-ylidene]ammonium; 2,2,2-trifluoroacetate] | – | EC50 [2]: 10.6 nM
14 | CCC1(CC)CC(=O)N([C@H](c2cccc(C(=O)N[C@H]3CC(C)(C)Oc4ccccc43)c2)c2cncs2)C(=N)N1 (stereo in doubt) [Example 90C, 3-[(4,4-diethyl-2-imino-6-oxo-hexahydropyrimidin-1-yl)-thiazol-5-yl-methyl]-N-(2,2-dimethylchroman-4-yl)benzamide] | 12 nM | –
15 | C#CCC[C@@H](c1cccc(C(=O)N[C@@H]2CC3(CCC3)Oc3ccccc32)c1)N1C(=N)NC(CC)(CC)CC1=O (stereo in doubt) [Example 213, [4,4-diethyl-6-oxo-1-[(S)-1-[3-[[(4R)-spiro[chromane-2,1′-cyclobutane]-4-yl]carbamoyl]phenyl]pent-4-ynyl]hexahydropyrimidin-2-ylidene]ammonium; 2,2,2-trifluoroacetate] | – | EC50 [2]: 28.6 nM
16 | CCC1(CC)CC(=O)N(Cc2cccc(C(=O)N[C@H]3CCOc4ccc(Cl)cc43)c2)C(=N)N1 (stereo in doubt) [Example 215B, N-(6-chlorochroman-4-yl)-3-[(4,4-diethyl-2-imino-6-oxo-hexahydropyrimidin-1-yl)methyl]benzamide] | 3.7 nM | –
17 | CC(C)[C@]1(C)CC(=O)N([C@@H](c2cccc(C(=O)N[C@H]3CCOc4ccccc43)c2)C23CC(C2)C3)C(=N)N1 [Example 26, [(4S)-1-[1-bicyclo[1.1.1]pentanyl-[3-[[(4S)-chroman-4-yl]carbamoyl]phenyl]methyl]-4-isopropyl-4-methyl-6-oxo-hexahydropyrimidin-2-ylidene]ammonium; 2,2,2-trifluoroacetate] | 8.9 nM | –
18 | CCC1(CC)CC(=O)N([C@H](CCN2CCOCC2)c2cccc(C(=O)N[C@@H]3c4ccccc4C[C@H]3O)c2)C(=N)N1 [Example 55, [4,4-diethyl-1-[1-[3-[[(1R,2R)-2-hydroxyindan-1-yl]carbamoyl]phenyl]-3-morpholin-4-ium-4-yl-propyl]-6-oxo-hexahydropyrimidin-2-ylidene]ammonium; 2,2,2-trifluoroacetate] | 9.8 nM | –
19 | C#CCC[C@@H](c1cncc(C(=O)N[C@H]2CC(C)(C)Oc3ccccc32)c1)N1C(=N)N[C@](C)(C(C)C)CC1=O [Example 114B, [(4S)-1-[1-[5-[[(4S)-2,2-dimethylchroman-4-yl]carbamoyl]pyridin-1-ium-3-yl]pent-4-ynyl]-4-isopropyl-4-methyl-6-oxo-hexahydropyrimidin-2-ylidene]ammonium; 2,2,2-trifluoroacetate] | 18.4 nM | –
20 | CC[C@]1(C(C)C)CC(=O)N(Cc2cc(F)cc(C(=O)N[C@@H]3c4ccccc4C[C@H]3O)c2)C(=N)N1 [Example 45, [(4R)-4-ethyl-1-[[3-fluoro-5-[[(1R,2R)-2-hydroxyindan-1-yl]carbamoyl]phenyl]methyl]-4-isopropyl-6-oxo-hexahydropyrimidin-2-ylidene]ammonium; 2,2,2-trifluoroacetate] | 2.6 nM | –
21 | CCC[C@H](c1cccc(C(=O)N[C@@H]2c3ccccc3C[C@H]2O)c1)N1C(=N)N[C@@](CC)(c2ccccc2)CC1=O [Example 67, [(4R)-4-ethyl-1-[(1R)-1-[3-[[(1R,2R)-2-hydroxyindan-1-yl]carbamoyl]phenyl]butyl]-6-oxo-4-phenyl-hexahydropyrimidin-2-ylidene]ammonium; 2,2,2-trifluoroacetate] | 2.7 nM | –
22 | CCC1(CC)CC(=O)N(C(COC)c2cccc(C(=O)N[C@@H]3c4ccccc4C[C@H]3O)c2)C(=N)N1 (stereo partly drawn) [Example 223, 3-[1-(4,4-diethyl-2-imino-6-oxo-hexahydropyrimidin-1-yl)-2-methoxy-ethyl]-N-[(1R,2R)-2-hydroxyindan-1-yl]benzamide] | 2.3 nM | –
23 | CCC1(CC)CC(=O)N([C@H](COCCOC)c2cccc(C(=O)N[C@@H]3c4ccccc4C[C@H]3O)c2)C(=N)N1 [Example 140, [4,4-diethyl-1-[(1S)-1-[3-[[(1R,2R)-2-hydroxyindan-1-yl]carbamoyl]phenyl]-2-(2-methoxyethoxy)ethyl]-6-oxo-hexahydropyrimidin-2-ylidene]ammonium; 2,2,2-trifluoroacetate] | 3.2 nM | –
24 | CCC1(CC)CC(=O)N([C@H](CCOC)c2cc(F)cc(C(=O)N[C@@H]3c4ccccc4C[C@H]3O)c2)C(=N)N1 [Example 138, [4,4-diethyl-1-[1-[3-fluoro-5-[[(1R,2R)-2-hydroxyindan-1-yl]carbamoyl]phenyl]-3-methoxy-propyl]-6-oxo-hexahydropyrimidin-2-ylidene]ammonium; 2,2,2-trifluoroacetate] | 2.7 nM | –
25 | COCC[C@H](c1cc(F)cc(C(=O)N[C@@H]2c3ccccc3C[C@]2(C)O)c1)N1C(=N)NC(C)(C)CC1=O [Example 175B, 3-fluoro-N-[(1R,2S)-2-hydroxy-2-methyl-indan-1-yl]-5-[1-(2-imino-4,4-dimethyl-6-oxo-hexahydropyrimidin-1-yl)-3-methoxy-propyl]benzamide] | – | EC50 [3]: 9.2 nM
